Measured values taken from ChEMBL document CHEMBL1201862, “PubChem BioAssay data set” (2004).
The source made the active and inactive calls. Cut-off read from the data, not from the text of the source, for most assays here: actives have a measured EC50 and inactives only a lower limit.

Assays:
[1] = Luminescence Cell-Based Dose Response HTS to Identify Inhibitors of 5'UTR Stem-Loop Driven Prion Protein mRNA Translation in H4 Neuroglioblastoma Cells. [Related pubchem assays: 1827 (Project Summary), 1813 (Primary HTS)]; type: functional
[2] = alpha-synuclein stem-loop luciferase translation blockers – H4 neuroglioma cells, luminescence, confirmation (AID 1988); type: functional, cell-based
[3] = luciferase reporter signal suppression in cells – H4 neuroglioma cells, luminescence, dose response (AID 1990); type: functional, cell-based
[4] = molecular target: T1, Calpain-2 catalytic subunit (Sus scrofa, UniProt P43367); experiment: m-calpain protease blockers, concentration series – biochemical, fluorogenic peptide substrate, dose response (AID 1420); type: functional
T1 sequence (P43367 whole entry): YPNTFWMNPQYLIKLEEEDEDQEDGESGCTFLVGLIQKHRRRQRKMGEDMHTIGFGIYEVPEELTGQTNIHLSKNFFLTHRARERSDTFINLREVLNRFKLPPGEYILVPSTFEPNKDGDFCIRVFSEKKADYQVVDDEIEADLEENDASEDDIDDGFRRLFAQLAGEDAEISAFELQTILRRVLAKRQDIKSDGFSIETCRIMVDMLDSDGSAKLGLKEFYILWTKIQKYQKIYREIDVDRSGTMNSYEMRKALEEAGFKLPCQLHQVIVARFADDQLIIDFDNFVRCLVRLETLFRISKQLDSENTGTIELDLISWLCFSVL

[5] = NIH3T3 cell viability loss – ATP luminescence, mouse fibroblasts, counter-screen, dose response (AID 2010); type: functional, cell-based;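 note: cells exposed to compound for about 90 hours before reading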
[6] = Trypanosoma cruzi growth suppression in host cells – NIH3T3 host cells, beta-gal luminescence, confirmation (AID 2044); type: functional, cell-based;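 note: intracellular parasites grown in NIH/3T3 mouse fibroblasts as host cells; luminescent beta-galactosidase reporter signal from transgenic T. cruzi replicating inside host cells; inhibitors lower the luminescence signal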
[7] = NIH-3T3 fibroblast cytotoxicity, dose response, cytotoxicity control, cell-based, fluorescence, Alamar Blue, secondary assay (AID 2327); type: functional;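 note: NIH-3T3 mouse fibroblasts cultured with fluconazole at 8 µg/mL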
[8] = viability of PTEN-deleted HCT116 cells – cell-based, HCT116 PTEN knockout, dose response (AID 1047); type: functional;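 note: HCT116 colon tumor cells with PTEN knocked out; cells exposed to compound for 60 hours before readout; potency for loss of cell viability measured by luminescence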
[9] = HIV-1 AD8 envelope cell-cell fusion blockers – cherry-pick, dose response (AID 652062); type: functional, cell-based;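 note: luciferase signal from cell-cell fusion driven by HIV-1 clade B AD8 Env; potency is for inhibitors of fusion seen as a drop in luminescence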
[10] = blockers of HIV-1 envelope-mediated cell-cell fusion – cherry-pick, dose response (AID 652057); type: functional, cell-based
BJ [11] = experiment: BJ-TERT-LT-ST fibroblast viability loss – cell-based, RAS-independent, luminescence, dose response (AID 1935); type: functional; settings: Homo sapiens;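 note: BJ fibroblasts immortalized with TERT plus LT and ST oncogenes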
BJ [12] = experiment: BJ-TERT fibroblast viability loss – cell-based, RAS-independent, luminescence, dose response (AID 1933); type: functional; settings: Homo sapiens
BJ [13] = experiment: cells; type: functional, cell-based; settings: Homo sapiens
[14] = DRD fibroblast viability loss – cell-based, non-viral oncogenic, luminescence, dose response (AID 1934); type: functional; settings: Homo sapiens
[15] = molecular target: FAD-linked sulfhydryl oxidase ALR (Homo sapiens, UniProt P55789); experiment: ALR-catalysed DTT oxidation blockers – biochemical, H2O2 detection, luminescence, cherry-pick, dose response (AID 493248)
Sequence of FAD-linked sulfhydryl oxidase ALR (P55789 whole entry): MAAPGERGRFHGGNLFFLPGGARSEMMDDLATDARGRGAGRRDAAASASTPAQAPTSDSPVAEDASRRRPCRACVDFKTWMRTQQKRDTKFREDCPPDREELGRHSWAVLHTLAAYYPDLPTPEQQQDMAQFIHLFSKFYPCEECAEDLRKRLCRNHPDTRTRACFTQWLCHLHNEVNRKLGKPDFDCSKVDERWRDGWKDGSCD

**Q.** For `CC(=O)Nc1nc2ccccc2n1Cc1ccccc1C`, which EC50 [1] is on record?
**A.** 14.2 µM (active)

**Q.** And the EC50 [2]?
**A.** 11.5 µM (active)

**Q.** And the EC50 [3]?
**A.** 14.5 µM (active)

**Q.** Which IC50 [4] does the source give for `CC(C)c1ccc(Nc2c([N+](=O)[O-])c(=O)n(C)c3ccccc23)cc1` here?
**A.** 3.37 µM (not active)

**Q.** Which IC50 [4] does the source give for `O=C(CCN1C(=O)/C(=C/c2ccc3c(c2)OCO3)SC1=S)Nc1ccccc1` here?
**A.** 24.8 µM (not active)

**Q.** Which results are given for `COC(=O)N/N=C/c1cn(Cc2ccc(F)cc2)c2ccccc12`?
**A.** EC50 [1]: 12.8 µM (active); EC50 [2]: 7.94 µM (active); EC50 [3]: 9.2 µM (active)

**Q.** With `COc1ccc(C(=O)NNC2=Nc3cccc4cccc2c34)cc1` as the compound, how does the EC50 [1] read?
**A.** 16.6 µM (active)

**Q.** What about the EC50 [2] of the same compound?
**A.** > 120 µM (not active)

**Q.** What about the EC50 [3] of the same compound?
**A.** > 120 µM (not active)

**Q.** For `Nc1c(S(=O)(=O)c2cccc(Cl)c2)c2nc3ccccc3nc2n1/N=C/c1ccc(O)c(O)c1`, which EC50 [1] is on record?
**A.** 12.5 µM (active)

**Q.** And the EC50 [5]?
**A.** 6.98 µM (active)

**Q.** And the EC50 [6]?
**A.** 3.16 µM (active)

**Q.** And the EC50 [2]?
**A.** 9.66 µM (active)

**Q.** What about the EC50 [3] of the same compound?
**A.** 11.4 µM (active)

**Q.** What about the EC50 [7] of the same compound?
**A.** > 160 µM (inconclusive)

**Q.** What does the source list for `COc1ccc(C2=NOC(Cn3c(Cc4ccc(Cl)cc4)nc4c3c(=O)n(C)c(=O)n4C)C2)cc1` (stereo not given)?
**A.** EC50 [1]: > 120 µM (not active); EC50 [2]: > 120 µM (not active); EC50 [3]: > 120 µM (not active)

**Q.** With `CCCn1c(SCC(=O)c2ccc3c(c2)NC(=O)CO3)nc2ccccc21` as the compound, how does the EC50 [8] read?
**A.** 22.4 µM (active)

**Q.** With `Cc1ccc(C(=O)NNC(=O)c2ccc3ncccc3c2)cc1` as the compound, how does the IC50 [4] read?
**A.** 9.29 µM (not active)

**Q.** With `Cn1nc(CC(=O)N2CCN(c3ccccc3)CC2)c2ccccc2c1=O` as the compound, how does the IC50 [4] read?
**A.** 13.1 µM (not active)

**Q.** Which IC50 [4] does the source give for `COc1cc(OC)cc(C(=O)Nc2ccc3c(c2)COC3=O)c1` here?
**A.** 5.36 µM (not active)

**Q.** With `CC(C)OC(=O)CSc1nnc(COc2ccc([N+](=O)[O-])cc2)n1C` as the compound, how does the IC50 [4] read?
**A.** 9.11 µM (not active)

**Q.** For `Cc1ccc(S(=O)(=O)N(C)C[C@H]2Oc3ncc(Br)cc3C(=O)N([C@@H](C)CO)C[C@@H]2C)cc1`, which AC50 [9] is on record?
**A.** 5.51 µM (active)

**Q.** What about the AC50 [10] of the same compound?
**A.** 4.57 µM (active)

**Q.** Which EC50 (BJ [11]) does the source give for `Cc1c(C(=O)c2ccc(Cl)c([N+](=O)[O-])c2)c2ccccn2c1CCC#N` here?
**A.** > 150 µM (inconclusive)

**Q.** What about the EC50 (BJ [12]) of the same compound?
**A.** > 150 µM (not active)

**Q.** What about the EC50 (BJ [13]) of the same compound?
**A.** > 150 µM (not active)

**Q.** What about the EC50 [14] of the same compound?
**A.** > 150 µM (not active)

**Q.** For `CCc1cccc(CC)c1NC(=O)c1cc(CN2C(=O)c3ccccc3C2=O)ccc1OC`, which IC50 [4] is on record?
**A.** 3.81 µM (not active)

**Q.** With `c1ccc(Oc2nc(Oc3ccccc3)nc(N3CCOCC3)n2)cc1` as the compound, how does the IC50 [4] read?
**A.** < 0.4 µM (not active)

**Q.** Which AC50 [15] does the source give for `COc1cccc2c(N/N=C/c3ccccc3)cc(C)nc12` here?
**A.** 6.41 µM (active)

**Q.** Which IC50 [4] does the source give for `COc1ccc(-n2c(=S)[nH]c3cc(C(=O)Nc4ccc(OC)c(OC)c4)ccc3c2=O)cc1` here?
**A.** 22.5 µM (not active)

**Q.** For `COc1ccc(N2CCN(C(=O)CCn3nnc4ccccc43)CC2)cc1`, which AC50 [15] is on record?
**A.** 6.11 µM (active)

**Q.** With `COc1cc2c(cc1OC)CN(C(=O)c1cc(=O)c3ccccc3o1)CC2` as the compound, how does the EC50 (BJ [11]) read?
**A.** > 150 µM (inconclusive)

**Q.** What about the EC50 (BJ [12]) of the same compound?
**A.** 18.6 µM (active)

**Q.** What about the EC50 (BJ [13]) of the same compound?
**A.** 43.3 µM (active)

**Q.** What about the EC50 [14] of the same compound?
**A.** 14.1 µM (active)
